Measured values taken from patent publication US20200061155A1, “COMPOSITIONS AND METHODS FOR TREATING LYNX2 DISORDERS” (OPHIDION, INC, priority 2017, published 2020).

Key:
[1] = system: basolateral amygdalar neurons of lynx2KO mice; test: spike timing dependent plasticity (post-pre stimulation), EPSC amplitude, perforated patch-clamp; type: cell-based, mouse; conditions: 10 μM DHPG for 15 min; lynx2KO neurons (FIG. 8E)
Experimental: Spike timing (i.e., Δt in ms) was determined between the onset of the EPSP and the peak of the AP. […] Post-pre stimulation was given tp determine the level of LTD. x-axis is time in minutes, y axis is EPSC amplitude, normalized and presented as a percentage (baseline set to 100). Baseline is EPSC amplitude before post-pre stimulation.
For activation of mGluR receptor with DHPG (FIG. 8E) in a spike-timing dependent paradigm (post-pre stimulation) to elicit LTD. For exploration of the mechanism of anti-Hebbian LTP, mGluR5 agonist DHPG (10 μM, Tocris Bioscience, Bristol, UK) was administered for 15 min when the baseline recorded at least 10 min. […] Baseline is EPSC amplitude before post-pre stimulation.
Pairings were repeated 100 times. Pre-post (spike timings as positive) was set as a 1 EPSP/1 AP pairing (100 repeats at 1 Hz) or post-pre (spike timing as negative) with either 1 AP/1 EPSP pairing (100 repeats at 1 Hz). Spike timing (i.e., Δt in ms) was determined between the onset of the EPSP and the peak of the AP.

[2] = system: lynx2KO mice; test: light dark box experiment (latency to enter dark enclosed environment); type: in vivo, mouse; conditions: lynx2KO mice under chronic stress with mec vs lynx2KO mice without mec (FIG. 2A)
Excerpt: FIG. 2A is a graph of the time in seconds (latency) for wild type (WT) (black bars) or lynx2 knock out (KO) (white bars) mice to enter a dark enclosed environment under conditions of saline, chronic stress, or chronic stress with administration of mecamylamine (mec) as indicated, according to embodiments of the present invention.

[3] = system: lynx2KO mice; test: fear extinction experiment (noise previously paired with electric shock); type: in vivo, mouse; conditions: lynx2KO mice with mec vs lynx2KO mice without mec (FIGS. 2B-2C)
Experimental: FIG. 2B is a graph of fear observed in wild type (black circles) and lynx2KO mice (white triangles) after fear training (an electric shock depicted in yellow) associated with a noise for 24 hours followed by the same noise without the shock to measure the mouse's capability to lose the fear, according to embodiments of the present invention.
FIG. 2C is a graph of fear observed in lynx2KO mice during the fear extinction experiment of FIG. 2B with a group of lynx2KO mice receiving mecamylamine (mec), according to embodiments of the present invention.

[4] = system: brain slices from lynx2 knockout (KO) mice; test: long term depression (LTD) of evoked fEPSPs in brain slices after theta pulse stimulation; type: cell-based, mouse; conditions: ACSF with 20 mM methyllycaconitine; lynx2KO slices; theta pulse stimulation (FIG. 4D)
Experimental: FIG. 4D is a graph of stimulating electrode traces from long term depression (LTD) experiments using extracellular recordings for evoked field excitatory post-synaptic potentials (fEPSPs) in […] (EC) brain slices in ACSF solution with […] methyllycaconitine (MLA) from lynx2 knockout (KO) mice before (left of zero minutes) and after (right of zero minutes) theta pulse stimulations (TSP), according to embodiments of the present invention.
Field excitatory postsynaptic potentials (fEPSPs) were evoked by 0.05 Hz test stimulus though a bipolar stimulating electrode placed on external Capsule (EC), and a glass pipette as recording electrode was filled with ACSF and placed in BLA. […] Access resistances were continuously monitored and neurons with more than 20% change of series resistance were excluded from data analysis.
The plasticity ratio was calculated from the average EPSP amplitude of the last 10 mins of baseline recording and the last 15 mins after high frequency or low stimulus, for LTP and LTD studies, respectively. […] For all experiments, treatment effects were analyzed with one-way ANOVA, followed by the appropriate post hoc tests. […]

## NC(C(=O)O)c1cc(O)cc(O)c1 (stereo not shown) [DHPG, 3,5-dihydroxyphenylglycine]
[1]
  synaptic plasticity (EPSC amplitude after post-pre stimulation): restores the abnormal synaptic plasticity in the lynx2KO neurons to normal levels

## CNC1(C)C2CCC(C2)C1(C)C (stereo not shown) [mecamylamine]
[2]
  latency to dark: increased latency to dark
[3]
  ability to unlearn a fear associated with a noise (fear extinction): increased ability to unlearn a fear associated with a noise

## CCN1C[C@]2(COC(=O)c3ccccc3N3C(=O)C[C@H](C)C3=O)CC[C@H](OC)[C@@]34[C@@H]5C[C@H]6[C@H](OC)[C@@H]5[C@](O)(C[C@@H]6OC)[C@@](O)([C@@H](OC)[C@H]23)[C@@H]14 [methyllycaconitine]
[4]
  induced long term depression (LTD) of fEPSPs: able to rescue induced long term depression (LTD)
